Measured values from patent publication US10582709B2, “Butyrolactones as herbicides” (FMC Corporation, priority 2015, dated 2020).

Columns and labels:
Assay type in all cases: in vivo
Settings in all cases: 1000 g ai/ha, visual rating after approx. 10 d, 0 to 100 scale, 0 no effect, 100 complete control
[1] = system: wheat (Triticum aestivum); test: Test A postemergence, wheat
Summary of the method: (§1)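 Visual injury rating on a 0–100 scale (0 = no effect, 100 = complete control) versus untreated controls, ~10 d after treatment in greenhouse. Preemergence: directed soil spray over seeded loam/sand. Postemergence: foliar spray at one- to two-leaf stage, 2–10 cm tall.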

[2] = system: pigweed (Amaranthus retroflexus); test: Test A postemergence, pigweed
Summary of the method: as §1

[3] = system: barnyardgrass (Echinochloa crus-galli); test: Test A preemergence, barnyardgrass
Summary of the method: as §1

[4] = system: pigweed (Amaranthus retroflexus); test: Test A preemergence, pigweed
Summary of the method: as §1

corn (Zea mays) [5] = test: Test A preemergence, corn
From the text: (§2) Seeds of plant species selected from barnyardgrass (Echinochloa crus-galli), crabgrass (large crabgrass, Digitaria sanguinalis), kochia (Kochia scoparia), ragweed (common ragweed, Ambrosia elatior), morningglory (Ipomoea spp.), velvetleaf (Abutilon theophrasti), ryegrass, Italian (Italian ryegrass, Lolium multiflorum), foxtail, giant (giant foxtail, Setaria faberii), wheat (Triticum aestivum), corn (Zea mays), and pigweed (Amaranthus retroflexus), were planted into a blend of loam soil and sand and treated preemergence with a directed soil spray using test chemicals formulated in a non-phytotoxic solvent mixture which included a surfactant. At the same time, plants selected from these crop and weed species and also blackgrass (Alopecurus myosuroides), and galium (catchweed bedstraw, Galium aparine), were planted in pots containing the same blend of loam soil and sand and treated with postemergence applications of test chemicals formulated in the same manner. Plants ranged in height from 2 to 10 cm and were in the one- to two-leaf stage for the postemergence treatment. Treated plants and untreated controls were maintained in a greenhouse for approximately 10 d, after which time all treated plants were compared to untreated controls and visually evaluated for injury. Plant response ratings, summarized in Table A, are based on a 0 to 100 scale where 0 is no effect and 100 is complete control. A dash (-) response means no test result.

[6] = system: velvetleaf (Abutilon theophrasti); test: Test A preemergence, velvetleaf
From the text: as §2

[7] = system: crabgrass (large crabgrass, Digitaria sanguinalis); test: Test A preemergence, crabgrass
From the text: as §2

[8] = system: crabgrass (large crabgrass, Digitaria sanguinalis); test: Test A postemergence, crabgrass
From the text: as §2

[9] = system: velvetleaf (Abutilon theophrasti); test: Test A postemergence, velvetleaf
From the text: as §2

[10] = system: morningglory (Ipomoea spp.); test: Test A preemergence, morningglory
From the text: as §2

[11] = system: morningglory (Ipomoea spp.); test: Test A postemergence, morningglory
From the text: as §2

[12] = system: barnyardgrass (Echinochloa crus-galli); test: Test A postemergence, barnyardgrass
Summary of the method: as §1

[13] = system: wheat (Triticum aestivum); test: Test A preemergence, wheat
From the text: as §2

[14] = system: foxtail, giant (giant foxtail, Setaria faberii); test: Test A postemergence, giant foxtail
Summary of the method: as §1

[15] = system: foxtail, giant (giant foxtail, Setaria faberii); test: Test A preemergence, giant foxtail
Summary of the method: as §1

corn (Zea mays) [16] = test: Test A postemergence, corn
Summary of the method: as §1

Cc1ccccc1NC(=O)C1C(=O)OCC1c1ccc(F)cc1 (racemic) [Compound 5]
80: Plant response rating, Crabgrass [7] | Plant response rating, Crabgrass [8]
0: Plant response rating, Wheat [1] | Plant response rating, Pigweed [2] | Plant response rating, Pigweed [4] | Plant response rating, Corn (corn (Zea mays) [5]) | Plant response rating, Velvetleaf [6] | Plant response rating, Velvetleaf [9] | Plant response rating, Morningglory [10] | Plant response rating, Morningglory [11] | Plant response rating, Wheat [13] | Plant response rating, Corn (corn (Zea mays) [16])
60: Plant response rating, Barnyardgrass [3] | Plant response rating, Foxtail, Giant [14]
70: Plant response rating, Foxtail, Giant [15]
50: Plant response rating, Barnyardgrass [12]
